Experimental data reported in patent US10131652B2, “Pyrimidinyloxy benzene derivatives as herbicides” (E. I. DU PONT DE NEMOURS AND COMPANY, priority 2014, dated 2018).

Columns and labels:
Experiment in all cases: Test D pre-/postemergence plant response
Format in all cases: in vivo
[1] = system: Italian ryegrass (Lolium multiflorum)
Description: (§1) Seeds of plant species selected from blackgrass (Alopecurus myosuroides), Italian ryegrass (Lolium multiflorum), winter wheat (Triticum aestivum), galium (catchweed bedstraw, Galium aparine), corn (Zea mays), large (Lg) crabgrass (Digitaria sanguinalis), giant foxtail (Setaria faberii), johnsongrass (Sorghum halepense), lambsquarters (Chenopodium album), morningglory (Ipomoea coccinea), yellow nutsedge (Cyperus esculentus), pigweed (Amaranthus retroflexus), ragweed (common ragweed, Ambrosia elatior), soybean (Glycine max), bamyardgrass (Echinochloa crus-galli), oilseed rape (Brassica napus), waterhemp (common waterhemp, Amaranthus rudis), and velvetleaf (Abutilon theophrasti) were planted into a blend of loam soil and sand and treated preemergence with test chemicals formulated in a non-phytotoxic solvent mixture which included a surfactant. At the same time, plants selected from these crop and weed species and also kochia (Kochia scoparia), wild oat (Avena fatua), and chickweed (common chickweed, Stellaria media) were planted in pots containing Redi-Earth® planting medium (Scotts Company, 14111 Scottslawn Road, Marysville, Ohio 43041) comprising spaghnum peat moss, vermiculite, wetting agent and starter nutrients and treated with postemergence applications of test chemicals formulated in the same manner. Plants ranged in height from 2 to 18 cm (1- to 4-leaf stage) for postemergence treatments. Treated plants and controls were maintained in a greenhouse for 13 to 15 days, after which time all species were compared to controls and visually evaluated. Plant response ratings, summarized in Table D, are based on a scale of 0 to 100 where 0 is no effect and 100 is complete control. A dash (-) response means no test result.

[2] = system: barnyardgrass (Echinochloa crus-galli)
Description: as §1

[3] = system: blackgrass (Alopecurus myosuroides)
Description: as §1

corn (Zea mays) = system: corn (Zea mays)
Description: as §1

[4] = system: galium (catchweed bedstraw, Galium aparine)
Description: as §1

[5] = system: giant foxtail (Setaria faberii)
Description: as §1

[6] = system: johnsongrass (Sorghum halepense)
Description: as §1

[7] = system: lambsquarters (Chenopodium album)
Description: as §1

[8] = system: large (Lg) crabgrass (Digitaria sanguinalis)
Description: as §1

[9] = Postemergence, 16 g ai/ha, scale 0 to 100 (0 no effect, 100 complete control)
[10] = Postemergence, 31 g ai/ha, scale 0 to 100 (0 no effect, 100 complete control)
[11] = Postemergence, 62 g ai/ha, scale 0 to 100, 0 no effect, 100 complete control
[12] = Postemergence, 125 g ai/ha, scale 0 to 100, 0 no effect, 100 complete control
[13] = Preemergence, 16 g ai/ha, scale 0 to 100 (0 no effect, 100 complete control)
[14] = Preemergence, 31 g ai/ha, scale 0 to 100 (0 no effect, 100 complete control)
[15] = Preemergence, 62 g ai/ha, scale 0 to 100 (0 no effect, 100 complete control)

FC(F)(F)c1cc(-c2ccccc2Oc2ncc(Cl)cn2)ncn1 [Compound 54]
Ryegrass, Italian plant response rating [1, 9]: 0 | Ryegrass, Italian plant response rating [1, 10]: 0 | Plant response rating, Ryegrass, Italian [1, 11]: 0 | Plant response rating, Ryegrass, Italian [1, 12]: 0 | Plant response rating (scale 0 to 100), Ryegrass, Italian ([1]; Preemergence, 125 g ai/ha): 30 | Plant response rating, Ryegrass, Italian [1, 13]: 0 | Plant response rating, Ryegrass, Italian [1, 14]: 5 | Plant response rating, Ryegrass, Italian [1, 15]: 5 | Barnyardgrass plant response rating [2, 9]: 0 | Barnyardgrass plant response rating [2, 10]: 5 | Plant response rating, Barnyardgrass [2, 11]: 5 | Plant response rating, Barnyardgrass [2, 12]: 10 | Plant response rating (scale 0 to 100), Barnyardgrass ([2]; Preemergence, 62 g ai/ha): 10 | Plant response rating (scale 0 to 100), Barnyardgrass ([2]; Preemergence, 125 g ai/ha): 95 | Plant response rating, Barnyardgrass [2, 13]: 0 | Plant response rating, Barnyardgrass [2, 14]: 5 | Blackgrass plant response rating [3, 9]: 0 | Blackgrass plant response rating [3, 10]: 5 | Plant response rating, Blackgrass [3, 11]: 5 | Plant response rating, Blackgrass [3, 12]: 5 | Plant response rating (scale 0 to 100), Blackgrass ([3]; Preemergence, 125 g ai/ha): 70 | Plant response rating, Blackgrass [3, 13]: 5 | Plant response rating, Blackgrass [3, 14]: 5 | Plant response rating, Blackgrass [3, 15]: 40 | Corn plant response rating (corn (Zea mays); [9]): 0 | Corn plant response rating (corn (Zea mays); [10]): 0 | Plant response rating, Corn (corn (Zea mays); [11]): 5 | Plant response rating, Corn (corn (Zea mays); [12]): 5 | Plant response rating (scale 0 to 100), Corn (corn (Zea mays); Preemergence, 125 g ai/ha): 0 | Plant response rating, Corn (corn (Zea mays); [13]): 0 | Plant response rating, Corn (corn (Zea mays); [14]): 0 | Plant response rating, Corn (corn (Zea mays); [15]): 0 | Galium plant response rating [4, 9]: 50 | Galium plant response rating [4, 10]: 55 | Plant response rating, Galium [4, 11]: 55 | Plant response rating, Galium [4, 12]: 75 | Plant response rating (scale 0 to 100), Galium ([4]; Preemergence, 125 g ai/ha): 85 | Plant response rating, Galium [4, 13]: 50 | Plant response rating, Galium [4, 14]: 85 | Plant response rating, Galium [4, 15]: 60 | Foxtail, Giant plant response rating [5, 9]: 0 | Foxtail, Giant plant response rating [5, 10]: 30 | Plant response rating, Foxtail, Giant [5, 11]: 10 | Plant response rating, Foxtail, Giant [5, 12]: 50 | Plant response rating (scale 0 to 100), Foxtail, Giant ([5]; Preemergence, 125 g ai/ha): 95 | Plant response rating, Foxtail, Giant [5, 13]: 0 | Plant response rating, Foxtail, Giant [5, 14]: 10 | Plant response rating, Foxtail, Giant [5, 15]: 95 | Johnsongrass plant response rating [6, 9]: 0 | Johnsongrass plant response rating [6, 10]: 0 | Plant response rating, Johnsongrass [6, 11]: 5 | Plant response rating, Johnsongrass [6, 12]: 5 | Plant response rating (scale 0 to 100), Johnsongrass ([6]; Preemergence, 125 g ai/ha): 40 | Plant response rating, Johnsongrass [6, 13]: 0 | Plant response rating, Johnsongrass [6, 14]: 0 | Plant response rating, Johnsongrass [6, 15]: 10 | Lambsquarters plant response rating [7, 9]: 0 | Lambsquarters plant response rating [7, 10]: 5 | Plant response rating, Lambsquarters [7, 11]: 5 | Plant response rating, Lambsquarters [7, 12]: 70 | Plant response rating (scale 0 to 100), Lambsquarters ([7]; Preemergence, 125 g ai/ha): 85 | Plant response rating, Lambsquarters [7, 13]: 5 | Plant response rating, Lambsquarters [7, 14]: 60 | Plant response rating, Lambsquarters [7, 15]: 85 | Crabgrass, Large plant response rating [8, 9]: 5 | Crabgrass, Large plant response rating [8, 10]: 5 | Plant response rating, Crabgrass, Large [8, 11]: 5 | Plant response rating, Crabgrass, Large [8, 12]: 5 | Plant response rating (scale 0 to 100), Crabgrass, Large ([8]; Preemergence, 125 g ai/ha): 100 | Plant response rating, Crabgrass, Large [8, 13]: 10
